Data on 7 compounds can be found in ChEMBL document CHEMBL1201862, “PubChem BioAssay data set” (2004).

Calls of active or inactive are those of the source. Where only a bound is given, the exact number is not on record here.

One assay deals with Major prion protein (Homo sapiens, UniProt P04156). In kind it is functional, cell-based.
The target in assay [1] is 72 kDa type IV collagenase (Homo sapiens, UniProt P08253). As to the kind of experiment: Dose Response validation of uHTS RPN11 inhibitor hits using a MMP-2 Fluorescence assay. In kind it is functional.
In another assay the target is Prothrombin (Bos taurus, UniProt P00735). Nature of the assay: thrombin inhibition, dose response, biochemical, fluorescence polarization, uHTS hits (AID 602369). It counts as functional.
The target of assay [2] is 26S proteasome non-ATPase regulatory subunit 14 (Homo sapiens, UniProt O00487). As to the kind of experiment: inhibition of proteasome subunit RPN11 – biochemical, fluorescence polarization, uHTS hits, confirmation (AID 602368). It counts as functional.
For another assay, the target named is Melanocortin receptor 4 (Homo sapiens, UniProt P32245). Nature of the assay: MC4R antagonist potency on cAMP, dose response, cell-based, TR-FRET, biased antagonists (AID 602298).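 Further: antagonist potency against agonist-stimulated cAMP production.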 It counts as functional. (In general: Time-resolved FRET reads energy transfer from a long-lived donor to a nearby acceptor.)
Assay [3] can be described thus: nonselective inhibitors of cellular cAMP signaling, dose response, counter-screen for MC4R biased antagonist project, cell-based, TR-FRET cAMP detection (AID 602305).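 Further: U2OS cells stimulated with forskolin near its EC80 as the cAMP inducer; potency is for inhibition of forskolin-stimulated cAMP signaling.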 In kind it is functional. A general note: A counterscreen serves to expose hits that act by an unwanted route or on another target.
Assay [4] has as its target T1, Sentrin-specific protease 7 (Homo sapiens, UniProt Q9BQF6).
T1 sequence (Q9BQF6 whole entry): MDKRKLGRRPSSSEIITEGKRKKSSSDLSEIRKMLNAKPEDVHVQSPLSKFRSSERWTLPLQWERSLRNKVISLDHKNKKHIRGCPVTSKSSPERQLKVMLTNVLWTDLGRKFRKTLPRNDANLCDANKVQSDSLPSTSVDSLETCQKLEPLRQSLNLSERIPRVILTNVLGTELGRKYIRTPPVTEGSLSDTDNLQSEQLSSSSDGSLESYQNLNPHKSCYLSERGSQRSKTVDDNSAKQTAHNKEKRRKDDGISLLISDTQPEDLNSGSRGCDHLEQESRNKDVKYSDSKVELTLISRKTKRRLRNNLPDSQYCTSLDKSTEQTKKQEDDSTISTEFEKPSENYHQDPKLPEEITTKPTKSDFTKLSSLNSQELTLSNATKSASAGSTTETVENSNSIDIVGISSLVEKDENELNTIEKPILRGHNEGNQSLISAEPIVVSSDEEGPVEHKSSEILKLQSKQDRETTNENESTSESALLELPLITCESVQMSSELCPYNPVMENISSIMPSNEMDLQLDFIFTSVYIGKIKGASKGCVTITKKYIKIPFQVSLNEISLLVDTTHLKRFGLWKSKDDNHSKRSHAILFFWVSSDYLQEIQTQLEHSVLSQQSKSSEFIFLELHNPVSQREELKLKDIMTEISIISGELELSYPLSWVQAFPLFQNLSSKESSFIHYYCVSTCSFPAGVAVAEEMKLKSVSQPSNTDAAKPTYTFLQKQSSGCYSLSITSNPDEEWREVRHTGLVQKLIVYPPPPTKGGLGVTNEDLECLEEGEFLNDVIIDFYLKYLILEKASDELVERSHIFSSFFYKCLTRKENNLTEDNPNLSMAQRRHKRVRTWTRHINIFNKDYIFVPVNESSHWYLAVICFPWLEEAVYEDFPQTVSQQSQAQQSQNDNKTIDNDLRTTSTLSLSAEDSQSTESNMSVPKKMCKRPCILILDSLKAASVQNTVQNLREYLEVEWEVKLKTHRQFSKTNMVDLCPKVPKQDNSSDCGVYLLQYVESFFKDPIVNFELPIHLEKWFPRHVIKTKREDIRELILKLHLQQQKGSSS
Nature of the assay: SENP7 protease inhibitors, SAR follow-up, biochemical, luminescence (AID 504497). It counts as functional.

The next assay deals with T2, Caspase-3 (Homo sapiens, UniProt P42574).
T2 sequence (P42574 whole entry): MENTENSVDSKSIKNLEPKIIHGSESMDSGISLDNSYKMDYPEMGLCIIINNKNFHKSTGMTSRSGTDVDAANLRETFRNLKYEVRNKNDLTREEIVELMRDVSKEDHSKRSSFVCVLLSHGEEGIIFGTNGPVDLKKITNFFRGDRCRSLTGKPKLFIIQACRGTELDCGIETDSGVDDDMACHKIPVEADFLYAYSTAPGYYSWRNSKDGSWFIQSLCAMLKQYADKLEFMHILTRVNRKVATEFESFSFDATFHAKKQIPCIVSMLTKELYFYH
Nature of the assay: SAR Analysis of small molecule inhibitors of Sentrin-specific proteases (SENPs) using a Caspase-3 Selectivity assay. [Related pubchem assays (depositor defined):AID2540, AID2599, AID434973, AID489001]. In kind it is functional.

The target of assay [5] is T3, Sentrin-specific protease 8 (Homo sapiens, UniProt Q96LD8).
T3 sequence (Q96LD8 whole entry): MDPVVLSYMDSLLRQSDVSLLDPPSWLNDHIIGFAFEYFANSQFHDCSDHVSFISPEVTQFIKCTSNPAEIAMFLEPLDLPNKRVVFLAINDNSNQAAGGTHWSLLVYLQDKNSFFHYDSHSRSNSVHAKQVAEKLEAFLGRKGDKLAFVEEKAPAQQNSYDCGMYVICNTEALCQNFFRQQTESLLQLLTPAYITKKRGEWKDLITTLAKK
Nature of the assay: SENP8 protease inhibitors, SAR follow-up, biochemical, luminescence (AID 504501). In kind it is functional.

Assay [6] has as its target T4, Sentrin-specific protease 6 (Homo sapiens, UniProt Q9GZR1).
T4 sequence (Q9GZR1 whole entry): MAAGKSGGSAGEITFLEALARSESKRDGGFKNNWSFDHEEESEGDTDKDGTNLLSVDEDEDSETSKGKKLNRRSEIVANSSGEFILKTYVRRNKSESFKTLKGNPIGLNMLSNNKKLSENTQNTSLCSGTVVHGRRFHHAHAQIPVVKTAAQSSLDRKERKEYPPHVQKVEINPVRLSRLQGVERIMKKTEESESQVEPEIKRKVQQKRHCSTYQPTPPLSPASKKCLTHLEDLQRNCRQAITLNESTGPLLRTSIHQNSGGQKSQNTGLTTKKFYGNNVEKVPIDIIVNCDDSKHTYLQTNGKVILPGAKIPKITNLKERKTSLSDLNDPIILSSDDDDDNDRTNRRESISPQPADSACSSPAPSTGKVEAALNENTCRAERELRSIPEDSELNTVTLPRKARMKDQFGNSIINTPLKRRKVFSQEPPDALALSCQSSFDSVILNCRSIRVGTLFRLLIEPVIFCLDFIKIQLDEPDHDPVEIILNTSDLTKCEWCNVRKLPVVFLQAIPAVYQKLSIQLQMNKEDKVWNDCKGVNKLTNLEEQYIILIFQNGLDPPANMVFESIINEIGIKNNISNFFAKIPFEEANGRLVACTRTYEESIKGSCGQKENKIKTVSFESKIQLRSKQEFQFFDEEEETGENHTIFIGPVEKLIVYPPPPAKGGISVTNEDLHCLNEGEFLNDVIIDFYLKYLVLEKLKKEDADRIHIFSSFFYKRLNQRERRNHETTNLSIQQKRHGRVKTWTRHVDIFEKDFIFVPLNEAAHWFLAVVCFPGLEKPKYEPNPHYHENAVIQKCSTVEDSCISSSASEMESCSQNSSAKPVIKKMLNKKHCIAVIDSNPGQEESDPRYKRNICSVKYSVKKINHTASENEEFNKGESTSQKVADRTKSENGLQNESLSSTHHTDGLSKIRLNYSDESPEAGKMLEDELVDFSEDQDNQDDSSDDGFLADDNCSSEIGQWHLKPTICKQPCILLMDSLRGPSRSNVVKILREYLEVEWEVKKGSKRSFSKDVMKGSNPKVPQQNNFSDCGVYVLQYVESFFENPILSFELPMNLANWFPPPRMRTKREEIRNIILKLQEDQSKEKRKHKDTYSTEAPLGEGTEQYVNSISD
Nature of the assay: SAR Analysis of small molecule inhibitors of Sentrin-specific protease 6 (SENP6) using a Luminescent assay. [Related pubchem assays (depositor defined):AID2582, AID2599]. It counts as functional.

Assay [7] addresses DNA dC->dU-editing enzyme APOBEC-3A (Homo sapiens, UniProt P31941). Nature of the assay: SAR analysis of small molecule inhibitors of APOBEC3A DNA Deaminase via a fluorescence-based single-stranded DNA deaminase assay. It counts as functional. To be noted: read-out: IC50_Mean.
Assay [8] has as its target DNA dC->dU-editing enzyme APOBEC-3G (Homo sapiens, UniProt Q9HC16). Nature of the assay: APOBEC3G deaminase inhibitors, SAR follow-up, biochemical, fluorescence, single-stranded DNA substrate (AID 602136). In kind it is functional. To be noted: read-out: IC50_Mean.
Assay [9] has as its target cAMP-dependent protein kinase catalytic subunit alpha (Homo sapiens, UniProt P17612). It counts as functional.
For assay [10], the target named is Serine/threonine-protein kinase pim-1 (Homo sapiens, UniProt P11309). In kind it is functional.
For assay [11], the target named is Dual specificity protein kinase CLK4 (Homo sapiens, UniProt Q9HAZ1). It counts as functional.
Assay [12] has as its target Mitogen-activated protein kinase kinase kinase kinase 4 (Homo sapiens, UniProt O95819). In kind it is functional.
Assay [13] addresses MAP kinase-interacting serine/threonine-protein kinase 2 (Homo sapiens, UniProt Q9HBH9). It counts as functional.
In assay [14] the target is Interleukin-1 receptor-associated kinase 4 (Homo sapiens, UniProt Q9NWZ3). It counts as functional.
The target of assay [15] is Cell division cycle 7-related protein kinase (Homo sapiens, UniProt O00311). It counts as functional.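 Further: value obtained from a kinome-wide kinase panel.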
Assay [16] concerns the target Homeodomain-interacting protein kinase 2 (Homo sapiens, UniProt Q9H2X6). It counts as functional.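 Further: measured within a kinome-wide kinase profiling panel, HIPK2 being one panel member.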
Assay [17] has as its target Glycogen synthase kinase-3 beta (Homo sapiens, UniProt P49841). It counts as functional.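 Further: value comes from a broad kinome profiling panel, with GSK3B as the panel member.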
The target of assay [18] is Cyclin-dependent kinase 2 (Homo sapiens, UniProt P24941). In kind it is functional.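 Further: CDK2 measured as one member of a broad kinome profiling panel.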
The target in another assay is Aurora kinase B (Homo sapiens, UniProt Q96GD4). In kind it is functional.
For assay [19], the target named is Vascular endothelial growth factor receptor 2 (Homo sapiens, UniProt P35968). In kind it is functional.
In a further assay the target is Aurora kinase A (Homo sapiens, UniProt O14965). It counts as functional.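 Further: value from the Navigating the Kinome kinase panel profiling, panel entry STK6.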
Assay [20] deals with Melanin-concentrating hormone receptor 1 (Homo sapiens, UniProt Q99705). As to the kind of experiment: Late-stage fluorescence-based counterscreen for antagonists of the G-protein coupled receptor 7 (GPR7): cell-based dose response assay to identify antagonists of the melanin-concentrating hormone receptor 1 (MCHR1) Set 5. It counts as functional.
The target in assay [21] is Neuropeptides B/W receptor type 1 (Homo sapiens, UniProt P48145). Nature of the assay: GPR7 antagonist potency, late-stage follow-up, cell-based, fluorescence, dose response, set 5 (AID 588566). In kind it is functional.

For the compound `Nc1nnc(SCc2nc(O)c3c(-c4ccccc4)csc3n2)s1`, the IC50 is 12.2 µM (inactive) on Major prion protein; > 100 µM (inactive) in assay [1]; 30.8 µM (active) at Prothrombin; 28.9 µM (active) in assay [2]; > 138 µM (inactive) in the assay “cells”.
For `COc1cc(C(=S)N2CCOCC2)ccc1OC(=O)c1ccc([N+](=O)[O-])cc1[N+](=O)[O-]`, the IC50 (on Melanocortin receptor 4; in assay [3]) was > 64.6 µM (inactive) throughout.
Turning to `CCc1ccc(-c2nc(/C=C/c3ccccc3)no2)cc1`, the IC50 in assay [4] was 46.5 µM (active); at Caspase-3 it was 80 µM (active); in assay [5], > 99 µM (inactive); in assay [6] it was > 99 µM (inactive).
Take `Fc1ccc(OCCSc2nc3cccnc3[nH]2)cc1`: the IC50 in assay [7] and in assay [8] was > 99 µM (inactive) throughout.
For orientation: Ki means a measure of affinity in units of concentration, obtained from inhibition or displacement. With `NC1CCCCC1Nc1nccc(Nc2ccccc2C(=O)O)n1` (stereo not drawn), the Ki in [9] is > 7.94 µM (inactive); in assay [10], 2 µM (active); in assay [11], > 10 µM (inactive); in [12], > 10 µM (inactive); in assay [13], > 10 µM (inactive); in assay [14] it was > 10 µM (inactive). In addition, the Ki in assay [15] is 0.0316 µM (active); in assay [16], > 3.16 µM (inactive); in assay [17], 6.31 µM (active); in [18] it was > 7.94 µM (inactive).
As to `O=S(=O)(Nc1ccc2c(c1)C(=NO)c1ccccc1-2)c1cccc(F)c1`, the Ki is 0.00631 µM (active) on Aurora kinase B, 3.98 µM (active) in assay [19] and 0.501 µM (active) at Aurora kinase A.
Regarding `O=c1c(Oc2ccc3c(c2)OCO3)c(Cl)cnn1Cc1cccc2ccccc12`, the IC50 in assay [20] is 11.2 µM (inactive); in assay [21], 0.368 µM (active).
